# According to patent publication US10722563B2, “Prostate-specific tumor antigens and uses thereof” (SHENZHEN INNOVATION IMMUNOTECHNOLOGY CO., LTD., priority 2012, dated 2020):
# Tests used:
# Format in all cases: cell-based, human
# [1] = system: PBMCs of ten HLA-A2+ healthy subjects; test: In vitro stimulation of peptide-specific T cells in PBMCs of healthy subjects, IFN-γ release by ELISA; conditions: for healthy subjects in which the peptide induced T cell responses: 10 HLA-A2+ healthy donors, IFN-γ ELISA after 2 weeks of peptide stimulation; for concentrations of IFN-γ in the supernatants: PBMCs stimulated 14 days with peptide 20 μg/mL, response to T2 cells pre-loaded with peptide 5 μg/mL
# Experimental: (§1) Ten HLA-A2+ prostate cancer patients and ten HLA-A2+ healthy subjects were enrolled in this study after written informed consent was obtained. All protocols were approved by the Institutional Review Board (IRB) of Baylor College of Medicine before commencing studies. 20 mL of peripheral blood was obtained from each person, and peripheral blood mononuclear cells (PBMCs) were isolated by density gradient centrifugation using Lymphoprep (Nycomed Pharma AS; Oslo, Norway). The freshly isolated PBMCs were cryopreserved for later use in 1 mL freezing medium containing 90% FCS and 10% dimethyl sulfoxide (DMSO) at −140° C. The expression of HLA-A2 molecules on PBMCs obtained from cancer patients and healthy subjects was verified by flow cytometry with FITC-labeled HLA-A2 mAb BB7.2 (BD Pharmingen, San Diego, Calif., USA).
# (§2) PBMCs (1×10^5 cells/well) from either healthy subjects or prostate cancer patients were incubated with standard peptide concentrations of 20 μg/mL per peptide in 96-well U-bottom microplates (BD, Franklin Lakes, N.J., USA) in 200 μL of T-cell medium (TCM), consisting of RPMI 1640 (Mediatech, Manassas, Va., USA), 10% human AB serum (Valley Biomedical, Winchester, USA), 50 μM of 2-mercaptoethanol, 100 U/mL of interleukin-2 (IL-2), and 0.1 mM MEM nonessential amino acid solution (Invitrogen, Grand Island, N.Y., USA). Half of the TCM was removed and replaced with fresh TCM containing peptides (20 μg/mL) every 5 days. After 14 days of culture, the cells were harvested and tested for their ability to produce IFN-γ in response to T2 cells (1×10^4 cells/well), which were pre-loaded with either PSGR peptide (5 μg/mL) or a control peptide (an irrelevant HL-A2 binding peptide: NLLTHVESL) as a negative control. After 18 hours of incubation, supernatants were collected, and IFN-γ release was determined by ELISA assay.
# (§3) Cytokine release was measured by coating 96-well ELISA plates (Thermo Fisher Scientific; Rochester, N.Y., USA) with 1 μg/mL anti-human IFN-γ (Pierce Biotechnology; Rockford, Ill., USA) overnight at 4° C. The plate was washed six times with PBS containing 0.05% Tween-20 (wash solution) to remove unbound coating antibody, and blocked with 1% BSA/PBS at room temperature for 2 hrs. Afterwards, 50 μL supernatant was added to each well and incubated at room temperature for 1 hr, then 50 μL of 0.5 μg/mL biotinylated anti-human IFN-γ (Pierce Biotechnology; Rockford, Ill., USA) was added and plates were incubated for an additional 1 hr at room temperature. After incubation, plates were washed and incubated for 30 min with Poly-HRP-Streptavidin (Thermo Fisher Scientific; Rochester, N.Y., USA) diluted 1:5000 in PBS/1% BSA. Plates were washed and 100 μL of TMB substrate solution (Sigma-Aldrich Co.; St. Louis, Mo., USA) was added per well. The colorimetric reaction was stopped using 2N H2SO4 and plates were read at 450 nm using an ELISA plate reader.
# To determine whether PSGR-reactive T cell precursors are present in healthy subjects, we obtained PBMCs from 10 HLA-A2+ healthy donors and stimulated them in vitro with each of the 21 PSGR-derived peptides containing HLA-A2-binding motif (Table 1). After 2 weeks of peptide stimulation, supernatants from peptide-stimulated T cells were analyzed by ELISA assay to detect IFN-γ release in response to T2 cells pulsed with or without corresponding peptides.
# [2] = system: PBMCs of HLA-A2+ prostate cancer patients; test: In vitro stimulation of peptide-specific T cells in PBMCs of prostate cancer patients, IFN-γ release by ELISA; conditions: PBMCs stimulated in vitro with peptide; for induction of peptide-specific CTLs from PBMCs of prostate cancer patients: Table 3
# Experimental: as §1, §2, §3
# Since peptide-specific T cells against PSGR3, PSGR4 and PSGR14 were found in more than 70% of healthy subjects, we reasoned that CTL precursors that recognize these 3 peptides may also be high in PBMCs of prostate cancer patients. To test our hypothesis, we examined whether these three peptide candidates can induce peptide-specific CTLs from the PBMCs of HLA-A2+ prostate cancer patients. PBMCs from prostate cancer patients were collected and stimulated in vitro with PSGR3, PSGR4 or PSGR14 peptides.
# LNCaP cells = test: Cytotoxicity of PSGR peptide-specific T cells by LDH assay against LNCaP; conditions: HLA-A2 positive, PSGR expressing LNCaP; T cells from healthy donors and patients; FIG. 2B
# Experimental: The expression of PSGR mRNA in different cell lines was determined by RT-PCR (A). PSGR derived peptide-specific T cells were tested for cytotoxicity against both PC3 and LNCaP by the LDH assay (B). Data from B are plotted as means±SD. Results are representative of three independent experiments. *P<0.05, versus control.
# Cells were stained with anti-CD8 and anti-IFN-γ, then analyzed on a FACScalibur machine (A). PSGR-derived peptide-specific T cells were co-incubated with LNCaP cells alone in medium, or with LNCaP cells in the presence of either anti-HLA-I mAb (W6/32), HLA-II mAb or a control mAb (anti-CD19 mAb). After 4 hours of incubation, the cytotoxicity against LNCaP was determined by the LDH assay (B). Data from B are plotted as means±SD. Results are representative of three independent experiments. *P<0.05, versus controls.
# PSGR derived peptide-specific T cells were tested for cytotoxicity against both PC3 and LNCaP by a lactate dehydrogenase (LDH) assay (Promega; Madison, Wis., USA). The assay was performed in accordance with the manufacturer's instructions. LDH release was calculated based on the following formula: Cytotoxicity (%)=(Experimental−Effector Spontaneous−Target Spontaneous LDH release)/(Target Maximum−Target Spontaneous LDH release)×100.
# Spontaneous release was determined by using the supernatant of the target cells alone or effector cells alone, and the maximum release was determined by using the supernatant of target cells incubated with a lysis solution included in LDH kit. To determine if T cell recognition is HLA-I restricted, anti-HLA-I, anti-HLA-II, or anti-CD19 mAb (all from ATCC, Manassas, Va., USA) were added into wells at the initiation of the culture.
sequence,measurement,setting,value
WLAFPLCSL (PSGR4),healthy subjects in which the peptide induced T cell responses,[1],7 out of 10
same,concentrations of IFN-γ in the supernatants,[1]; healthy subject #1,302 pg/mL
same,concentrations of IFN-γ in the supernatants,[1]; healthy subject #2,152 pg/mL
same,concentrations of IFN-γ in the supernatants,[1]; healthy subject #3,457 pg/mL
same,concentrations of IFN-γ in the supernatants,[1]; healthy subject #4,0 pg/mL
same,concentrations of IFN-γ in the supernatants,[1]; healthy subject #5,407 pg/mL
same,concentrations of IFN-γ in the supernatants,[1]; healthy subject #6,226 pg/mL
same,concentrations of IFN-γ in the supernatants,[1]; healthy subject #7,847 pg/mL
same,concentrations of IFN-γ in the supernatants,[1]; healthy subject #8,0 pg/mL
same,concentrations of IFN-γ in the supernatants,[1]; healthy subject #9,0 pg/mL
same,concentrations of IFN-γ in the supernatants,[1]; healthy subject #10,459 pg/mL
same,induction of peptide-specific CTLs from PBMCs of prostate cancer patients,[2],indeed induced peptide-specific CTLs
same,concentrations of IFN-γ in the supernatants,[2]; prostate cancer patient #2,451 pg/mL
same,concentrations of IFN-γ in the supernatants,[2]; prostate cancer patient #3,351 pg/mL
same,concentrations of IFN-γ in the supernatants,[2]; prostate cancer patient #12,0 pg/mL
same,concentrations of IFN-γ in the supernatants,[2]; prostate cancer patient #13,301 pg/mL
same,concentrations of IFN-γ in the supernatants,[2]; prostate cancer patient #14,309 pg/mL
same,concentrations of IFN-γ in the supernatants,[2]; prostate cancer patient #15,70 pg/mL
same,concentrations of IFN-γ in the supernatants,[2]; prostate cancer patient #16,6.7 pg/mL
same,concentrations of IFN-γ in the supernatants,[2]; prostate cancer patient #17,102 pg/mL
same,concentrations of IFN-γ in the supernatants,[2]; prostate cancer patient #22,56 pg/mL
same,concentrations of IFN-γ in the supernatants,[2]; prostate cancer patient #25,27 pg/mL
same,recognition and killing of LNCaP by peptide-specific T cells,LNCaP cells,could recognize and kill
ILANIYLLV (PSGR3),healthy subjects in which the peptide induced T cell responses,[1],7 out of 10
same,concentrations of IFN-γ in the supernatants,[1]; healthy subject #1,127 pg/mL
same,concentrations of IFN-γ in the supernatants,[1]; healthy subject #2,398 pg/mL
same,concentrations of IFN-γ in the supernatants,[1]; healthy subject #3,393 pg/mL
same,concentrations of IFN-γ in the supernatants,[1]; healthy subject #4,768 pg/mL
same,concentrations of IFN-γ in the supernatants,[1]; healthy subject #5,227 pg/mL
same,concentrations of IFN-γ in the supernatants,[1]; healthy subject #6,183 pg/mL
same,concentrations of IFN-γ in the supernatants,[1]; healthy subject #7,645 pg/mL
same,concentrations of IFN-γ in the supernatants,[1]; healthy subject #8,0 pg/mL
same,concentrations of IFN-γ in the supernatants,[1]; healthy subject #9,394 pg/mL
same,concentrations of IFN-γ in the supernatants,[1]; healthy subject #10,0 pg/mL
same,induction of peptide-specific CTLs from PBMCs of prostate cancer patients,[2],indeed induced peptide-specific CTLs
same,concentrations of IFN-γ in the supernatants,[2]; prostate cancer patient #2,525 pg/mL
same,concentrations of IFN-γ in the supernatants,[2]; prostate cancer patient #3,503 pg/mL
same,concentrations of IFN-γ in the supernatants,[2]; prostate cancer patient #12,326 pg/mL
same,concentrations of IFN-γ in the supernatants,[2]; prostate cancer patient #13,217 pg/mL
same,concentrations of IFN-γ in the supernatants,[2]; prostate cancer patient #14,0 pg/mL
same,concentrations of IFN-γ in the supernatants,[2]; prostate cancer patient #15,282 pg/mL
same,concentrations of IFN-γ in the supernatants,[2]; prostate cancer patient #16,35 pg/mL
same,concentrations of IFN-γ in the supernatants,[2]; prostate cancer patient #17,156 pg/mL
same,concentrations of IFN-γ in the supernatants,[2]; prostate cancer patient #22,103 pg/mL
same,concentrations of IFN-γ in the supernatants,[2]; prostate cancer patient #25,22 pg/mL
same,recognition and killing of LNCaP by peptide-specific T cells,LNCaP cells,could recognize and kill
VILANIYLLV (PSGR14),healthy subjects in which the peptide induced T cell responses,[1],7 out of 10
same,concentrations of IFN-γ in the supernatants,[1]; healthy subject #1,471 pg/mL
same,concentrations of IFN-γ in the supernatants,[1]; healthy subject #2,0 pg/mL
same,concentrations of IFN-γ in the supernatants,[1]; healthy subject #3,115 pg/mL
same,concentrations of IFN-γ in the supernatants,[1]; healthy subject #4,0 pg/mL
same,concentrations of IFN-γ in the supernatants,[1]; healthy subject #5,124 pg/mL
same,concentrations of IFN-γ in the supernatants,[1]; healthy subject #6,296 pg/mL
same,concentrations of IFN-γ in the supernatants,[1]; healthy subject #7,843 pg/mL
same,concentrations of IFN-γ in the supernatants,[1]; healthy subject #8,0 pg/mL
same,concentrations of IFN-γ in the supernatants,[1]; healthy subject #9,346 pg/mL
same,concentrations of IFN-γ in the supernatants,[1]; healthy subject #10,854 pg/mL
same,induction of peptide-specific CTLs from PBMCs of prostate cancer patients,[2],indeed induced peptide-specific CTLs
same,concentrations of IFN-γ in the supernatants,[2]; prostate cancer patient #2,344 pg/mL
same,concentrations of IFN-γ in the supernatants,[2]; prostate cancer patient #3,116 pg/mL
same,concentrations of IFN-γ in the supernatants,[2]; prostate cancer patient #12,272 pg/mL
same,concentrations of IFN-γ in the supernatants,[2]; prostate cancer patient #13,23 pg/mL
same,concentrations of IFN-γ in the supernatants,[2]; prostate cancer patient #14,0 pg/mL
same,concentrations of IFN-γ in the supernatants,[2]; prostate cancer patient #15,24 pg/mL
same,concentrations of IFN-γ in the supernatants,[2]; prostate cancer patient #16,0 pg/mL
same,concentrations of IFN-γ in the supernatants,[2]; prostate cancer patient #17,100 pg/mL
same,concentrations of IFN-γ in the supernatants,[2]; prostate cancer patient #22,8 pg/mL
same,concentrations of IFN-γ in the supernatants,[2]; prostate cancer patient #25,11 pg/mL
same,recognition and killing of LNCaP by peptide-specific T cells,LNCaP cells,could recognize and kill
